# From patent publication US10206944B2, “Chondroitin for use in medicine” (ALTERGON S.A., priority 2012, dated 2019)
# Columns and labels:
# [1] = tested on: primary cultures of human chondrocytes; assay: Chondrocyte proliferation test (time-lapse videomicroscopy); assay type: cell-based; details: 1% w/v
# From the text: Primary cultures of human chondrocytes isolated from healthy human cartilage samples obtained during rhinoplasty operations were used as model system. The tissue fragments just removed in the operating theatre were immersed in an 0.9% w/w NaCl saline solution and rapidly transferred to the laboratory for extraction of chondrocytes. Operating in sterile conditions under laminar-flow hood, the tissue sample was transferred to a petri dish where it was cut into small pieces using sterile tweezers and scalpels. The pieces of cartilage were then immersed in 0.01M phosphate buffer pH 7.4 (PBS) containing type 1 collagenase (3 mg/mL), dispase (4 mg/mL) and gentamicin (5 μL/mL of an 80 mg/mL solution) to ensure sterility during enzymatic digestion. The pieces were left to incubate overnight in a Falcon tube at 37° C., under stirring. After 16-18 h the solution was filtered through a 70 μm filter, transferring the parts adhering to the Falcon tube onto the filter and washing with 7-8 mL of DMEM 10% FBS. The filtrate was centrifuged at 1,500 rpm for 7 min, the supernatant was removed and the pellet was suspended in 10 mL of DMEM 10% FBS containing fungizone (5 μL/mL of an 80 mg/mL solution) and gentamicin (5 μL/mL of an 80 mg/mL solution). The cell suspension thus obtained was plated in a 25 cm^2 flask and incubated at 37° C. in a 5% CO2 atmosphere, with changes of medium every 2 or 3 days until complete confluency of the cell culture. The cells, which have the characteristic appearance of chondrocytes (small swollen cells with a slightly elongated shape), were detached from the base of the flask, counted and incubated again in fresh medium. Starting with 0.4 g of cartilage, about 2*10^6 cells were generally obtained in the second growth phase. Knowledge of the number of growth cycles to which the culture has previously been subjected is of crucial importance for primary cells; especially in the case of chondrocytes a cell differentiation process is observed wherein, as the growth phases proceed, the cells increasingly present an appearance morphologically similar to fibroblasts. For this reason the entire study is conducted with primary chondrocyte cultures at the 2nd-4th growth phase.
# The effect of chondroitin on chondrocyte proliferation was evaluated with time-lapse videomicroscopy, as described in Example 1. The study was performed comparatively with chondrocytes stimulated with chondroitin sulphate, using non-stimulated chondrocytes as control system. 20*10^3 cells were seeded per well of a 24-well multiwell plate. The cells were treated with chondroitin or chondroitin sulphate with an endotoxin content ≤0.1 EU/mg at a concentration of 1% w/v in DMEM 10% FBS; in the controls, the cells were seeded in DMEM 10% FBS. The experiments were conducted in triplicate and analysed for a total time ranging between 96 and 120 h. Image analysis, conducted with Image Pro-plus 5.1 analysis software, allowed a precise number of cells to be obtained with a manual count at times pre-set by the operator, in order to construct a growth curve over time. The data analysis indicates (Table 2) that the growth of the cells treated with chondroitin was better than that of the untreated cells and the cells treated with chondroitin sulphate.
# [2] = tested on: type II collagen; assay: Phenotype analysis with immunohistochemical tests on human chondrocytes; assay type: cell-based
# Method: The evaluation of the chondrocyte phenotype of fresh cells extracted from human cartilage tissue samples and after 4, 7 and 10 days' growth in medium containing chondroitin or chondroitin sulphate was conducted with immunohistochemical tests, using the Envision+(DaKo) kit which uses an antibody for type II collagen, considered to be a specific marker for chondrocyte differentiation (Stokes et al., Biochem. J., 2001, 360:461-470).
# [3] = tested on: dogs suffering from DJD; assay: Treatment of degenerative joint disease in dogs; assay type: in vivo, dog; details: dogs with DJD, 15 mg/Kg/day with food, 6 months; scale of 1 to 10; placebo 2.5±1.3
# Method: The therapeutic potential of chondroitin in the treatment of joint disease was evaluated in the dog, an experimental model wherein degenerative or inflammatory orthopaedic problems associated with degenerative joint disease (DJD) are particularly recurrent at both young and geriatric age.
# The study was conducted on 90 animals with a mean weight of 30±10 Kg, a mean age of about 8 years, of different breeds, both males and females, all suffering from DJD of the shoulder, hip and/or stifle, randomised into three groups of 30 animals treated with 15 mg/Kg/day of chondroitin (C group), 15 mg/Kg/day of chondroitin sulphate (CS group) or 15 mg/Kg/day of starch (placebo group). The animals received the daily dose with their food. An X-ray and a set of diagnostic tests for DJD were conducted on a preliminary basis on all the animals included in the study. […] The study continued for 6 months; during the treatment, the animals, which were cared for by their owners, were monitored by three veterinary surgeons who independently evaluated the state of the animals. Every month the animals' owners and the three veterinary surgeons filled in a questionnaire, allocating a score on a scale of 1-5 to a set of parameters. Once a month the owners evaluated, on a scale of 1 to 5, the lameness of the animal, its willingness to play, load tolerance, and behaviour indicating pain symptoms. […]
Substance,Number of chondrocytes ([1]; time 0 h) [Cells × 10^4],Number of chondrocytes ([1]; time 20 h) [Cells × 10^4],Number of chondrocytes ([1]; time 40 h) [Cells × 10^4],Number of chondrocytes ([1]; time 60 h) [Cells × 10^4],Number of chondrocytes ([1]; time 80 h) [Cells × 10^4],Number of chondrocytes ([1]; time 100 h) [Cells × 10^4],positivity to type II collagen ([2]; after 4 days' treatment),positivity to type II collagen ([2]; longer times (7 and 10 days)),average overall score for the regression of the disease [3]
chondroitin,7.0 ± 0.7,10.2 ± 0.9,15.3 ± 1.3,22.0 ± 1.8,27.0 ± 2.0,32.0 ± 2.1,strong positivity to type II collagen,only maintained for longer times (7 and 10 days) in the cells treated with chondroitin,8.5±2.1
"chondroitin sulphate [CS, reference compound]",7.0 ± 0.5,10.0 ± 1.2,14.0 ± 1.8,18.0 ± 1.6,21.8 ± 1.7,25.0 ± 2.5,strong positivity to type II collagen,–,5.3±2.3
